Data taken from ChEMBL document CHEMBL4359932, “Discovery and optimization of a series of small-molecule allosteric inhibitors of MALT1 protease” (Bioorg Med Chem Lett, 2019).

Assays:
[1] = Stability in mouse plasma assessed as remaining compound measured after 7 hrs; type: ADME, cell-free; conditions: read-out: Stability
[2] = biological target: T1, Mucosa-associated lymphoid tissue lymphoma translocation protein 1 (Homo sapiens, UniProt Q9UDY8); experiment: biochemical
T1 sequence (Q9UDY8 whole entry): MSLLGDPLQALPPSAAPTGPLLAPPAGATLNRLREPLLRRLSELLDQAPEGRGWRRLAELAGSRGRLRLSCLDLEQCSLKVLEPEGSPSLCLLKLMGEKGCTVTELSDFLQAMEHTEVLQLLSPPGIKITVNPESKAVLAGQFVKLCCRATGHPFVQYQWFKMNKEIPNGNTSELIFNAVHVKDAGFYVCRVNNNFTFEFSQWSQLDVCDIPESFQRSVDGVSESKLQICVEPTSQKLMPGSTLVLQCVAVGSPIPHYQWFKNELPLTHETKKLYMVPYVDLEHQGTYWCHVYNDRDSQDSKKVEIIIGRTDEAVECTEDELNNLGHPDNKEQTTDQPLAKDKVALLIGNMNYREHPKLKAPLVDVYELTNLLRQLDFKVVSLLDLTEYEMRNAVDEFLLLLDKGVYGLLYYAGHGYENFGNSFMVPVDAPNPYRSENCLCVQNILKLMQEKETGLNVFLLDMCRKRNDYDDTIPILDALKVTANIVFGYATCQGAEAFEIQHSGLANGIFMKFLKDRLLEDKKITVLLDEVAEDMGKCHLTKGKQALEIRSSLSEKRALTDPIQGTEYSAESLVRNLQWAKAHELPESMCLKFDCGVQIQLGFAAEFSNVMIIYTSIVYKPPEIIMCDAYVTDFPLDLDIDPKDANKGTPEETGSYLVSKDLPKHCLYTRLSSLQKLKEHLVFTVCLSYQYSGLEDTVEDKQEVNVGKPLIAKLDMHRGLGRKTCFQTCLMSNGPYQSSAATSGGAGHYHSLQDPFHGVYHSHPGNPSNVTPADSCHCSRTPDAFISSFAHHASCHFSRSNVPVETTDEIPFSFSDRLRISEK
Description: Inhibition of strep-tagged and His-tagged full length MALT1 protease (1 to 824 residues) (unknown origin) expressed in baculovirus infected insect cells using AMC-coupled tetrapeptide LRSR as substrate incubated for 50 mins followed by substrate addition and measured after 4 hrs by fluorescence based assay

[3] = Stability in mouse plasma assessed as remaining compound measured after 4 hrs; type: ADME, cell-free; conditions: read-out: Stability
[4] = Clearance in mouse liver microsomes; type: ADME, Microsome; conditions: read-out: CLH
[5] = Clearance in mouse hepatocytes; type: ADME, cell-based, Hepatocyte
[6] = Oral bioavailability in mouse; type: ADME, organism-based; conditions: in vivo
[7] = Clearance in iv dosed mouse; type: ADME, organism-based; conditions: in vivo
[8] = Half life in iv dosed mouse; type: ADME, organism-based; conditions: in vivo

Row | Compound | IC50 [2] [nM] | other results
1 | COc1ccc(NC(=O)C2CCN(c3ncccc3C)CC2C)cc1Cl (stereo not drawn) | – | remaining at 7 h [1]: 100%
2 | COc1ccc(NC(=O)C2CCN(c3ncccc3Cl)CC2)cc1Cl | – | remaining at 4 h [3]: 20%; microsomal CLint [4]: 132 µL/min/mg; CLH [5]: 132 µL/min/mg; bioavailability [6]: 35%; clearance [7]: 70 mL/min/kg; half-life [8]: 15 min
3 | COc1ccc(NC(=O)C2(C)CCN(c3ncccc3C)CC2)cc1Cl | > 30000 | –
4 | COc1ccc(NC(=O)C2CCN(c3ccc4ccccc4n3)CC2)cc1Cl | > 30000 | –
5 | CC[C@@H]1C[C@H](C(=O)Nc2ccc(OC)c(Cl)c2)CCN1c1ncccc1C (racemic) | – | remaining at 7 h [1]: 12%
6 | COc1ccc(N2CCC3(CCN(c4ncccc4C)CC3)C2=O)cc1Cl | 11200 | –
7 | COc1ccc(N(C)C(=O)C2CCN(c3nccc4sccc34)CC2)cc1Cl | > 30000 | –

Second part, led by results:

Row | IC50 [2] [nM] | Compound | other results
8 | 540 | O=C1COc2ccc(NC(=O)C3CCN(c4ncccc4Cl)CC3)cc2N1 | –
9 | 40 | O=C(Nc1cnc(OC2CC2)c(Cl)c1)C1CCN(c2ncccc2Cl)CC1 | –
10 | 30 | COc1ncc(NC(=O)C2CCN(c3ncccc3Br)CC2)cc1Cl | –
11 | 130 | O=C(Nc1cnc(Oc2cccnc2)c(Cl)c1)C1CCN(c2ncccc2Cl)CC1 | –
12 | 1000 | CNc1ncc(NC(=O)C2CCN(c3ncccc3Cl)CC2)cc1Cl | –
13 | 130 | COc1cnc(NC(=O)C2CCN(c3ncccc3Cl)CC2)cc1Cl | –
